Test results from US4613505A, “Ester of flurbiprofen and emulsion containing the same” (The Green Cross Corporation, priority 1983, dated 1986).
Read-outs that look alike come from different tables or passages of the source.

Assay: Hydrolysis in human articular synovia
Format: in vitro ADME
Details: for metabolised at 1 h: human, articular synovia, 60 minutes at 37° C., read-out: Hydrolysis rate
Procedure: Into 1 ml of articular synovia of a patient with rheumatoid or osteoarthritis, was added 10 ml of an acetone solution of ethyl 2-(2-fluoro-4-biphenylyl)propionate(ethyl flurbiprofen ester: compound 1) or acetoxymethyl 2-(2-fluoro-4-biphenylyl)propionate(acetoxymethyl flurbiprofen ester; compound 2) (each being contained in an equimolar amount to 50 ng of flurbiprofen), respectively, and the mixture was incubated for 60 minutes at 37° C. The concentration of flurbiprofen formed by hydrolysis was then determined by gas chromatography.

Compound	hydrolysis in human articular synovia (in words)	metabolised at 1 h (patient five (Rheumatoid)) [%]	metabolised at 1 h (patient four (Rheumatoid)) [%]	metabolised at 1 h (patient one (Rheumatoid)) [%]	metabolised at 1 h (patient three (Osteoarthritis)) [%]	metabolised at 1 h (patient two (Unknown)) [%]
CCOC(=O)C(C)c1ccc(-c2ccccc2)c(F)c1 (stereo not drawn) [Compound 1, ethyl 2-(2-fluoro-4-biphenylyl)propionate]	substantially not hydrolyzed	0	0	25.8	0	2
CC(=O)OCOC(=O)C(C)c1ccc(-c2ccccc2)c(F)c1 (stereo not drawn) [Compound 2, acetoxymethyl 2-(2-fluoro-4-biphenylyl)propionate]	effectively hydrolyzed	65.7	64.1	91.3	64.7	84.4
